The source of these data is paper PMC10487733, “Synthesis, Conformational Analysis and Antitumor Activity of the Naturally Occurring Antimicrobial Medium-Length Peptaibol Pentadecaibin and Spin-Labeled Analogs Thereof” (International Journal of Molecular Sciences, 2023).

The structures appear in SMILES notation. Where a SMILES comes first, the peptide text is derived from it. [ ]: non-standard residue; d: D form. TOAC = CC1(C)CC(N)(C(=O)O)CC(C)(C)N1[O]; Phe(ol) = N[C@H](CO)Cc1ccccc1; Aib = CC(C)(N)C(=O)O

The nature of data set [1]: Circular dichroism in SDS micelles (helix aggregation index). In kind it is physicochemical. The conditions noted are these: CD in 100 mM aqueous SDS micelles, 25 °C, 1 mm cell, 16 scans; ratio is ≈ 0.9 in CH3OH. On the procedure: We performed a CD analysis of the peptides in methanol and in the presence of micelles of sodium dodecyl sulfate (SDS) 100 mM in water.
CD spectra of α-helical peptides feature two negative and one positive maxima centered at about 208, 222 and 195 nm, respectively. Aib-containing peptides are known to fold in 3_10-helices, which is common for peptaibols. In this case, the first negative maximum shifts from 208 to about 205 nm.
CD measurements were acquired on a Jasco J-1500 spectrophotometer (Tokyo, Japan), using a 1 mm pathlength quartz cell (Hellma Analytics, Munich, Germany). Methanol or a solution of sodium dodecyl sulfate (SDS) 100 mM in milliQ water was used as solvent. An amount of 1 mM of solutions of the three peptides in each of the two solvents of choice was prepared. Then, 300 µL of each solution was inserted in the 1 mm quartz cell and the cell put into the cell holder of the Jasco J-1500 instrument. The measurements were performed at 25 °C, acquiring 16 scans. The temperature was kept constant by means of an external Peltier thermostat (ThermoHaake C25P, Karlbruhe, Germany).
(In general: Circular dichroism is the unequal absorption of left and right circularly polarised light.)

The test system of data set [2] is MDA-MB-231 (human triple-negative breast cancer). As to conditions: MDA-MB-231 cells, 24 h exposure to 0–20 µM peptaibol, MTS read-out at 490 nm; value [95% CI]; at least three independent experiments in triplicate.
Data set [3] relates to MUG-Mel2 (human melanoma). The conditions noted are these: MUG-Mel2 cells, 24 h exposure to 0–20 µM peptaibol, MTS read-out at 490 nm; CI not given; at least three independent experiments in triplicate.
Data set [4] relates to A549 (human lung adenocarcinoma). As to conditions: A549 cells, 24 h exposure to 0–20 µM peptaibol, MTS read-out at 490 nm; value [95% CI]; at least three independent experiments in triplicate.
A short description of data set [5]: Peptide-induced carboxyfluorescein leakage from PE/PG liposomes. As to conditions: PE/PG 7:3 SUVs 0.06 mM, HEPES pH 7.4, 20 min incubation, fluorescence 488/520 nm, relative to Triton X-100; qualitative; more efficient than trichogin GA IV, particularly on these SUVs. On the procedure: (§1) The assay was carried out on model liposomes (small unilamellar vesicles, SUV) of two different compositions, namely phosphatidylcholine/cholesterol (PC/Ch) 7:3 and phosphatidylethanolamine/phosphatidylglycerol (PE/PG) 7:3. Using fluorescence measurements, the ability of the peptides to induce the release of the carboxyfluorescein (CF) dye previously included within SUVs was evaluated.
(§2) The chosen lipid compositions result in different net surface charges on the SUVs. […] On the other hand, when the peptide perturbs the artificial membrane, it causes the leakage of the CF, and therefore leads to an increase in fluorescence intensity. The maximum value of fluorescence intensity, corresponding to the complete destruction of the vesicles via the surfactant Triton X-100, was used as a reference. […]
(§3) Phosphatidylcholine (PC), phosphatidylglycerol (PG), phosphatidylethanolamine (PE) and cholesterol (Ch) were purchased from Avanti Polar Lipids (Alabaster, AL, USA). […] To evaluate the peptide ability to modulate membrane permeability, CF leakage from the liposomes was measured via fluorescence spectroscopy on a Perkin Elmer (Waltham, MA, USA) MPF-66 spectrofluorimeter. The procedure was as follows: 2.5 mL of each SUV at 0.06 mM concentration was inserted in twelve disposable fluorescence cuvettes and fluorescence was recorded (λexc = 488 nm) for all of them at 520 nm (F0). […]

A short description of data set [6]: Peptide-induced carboxyfluorescein leakage from PC/Ch liposomes. As to conditions: PC/Ch 7:3 SUVs 0.06 mM, HEPES pH 7.4, 20 min incubation, fluorescence 488/520 nm, relative to Triton X-100; qualitative; more efficient than trichogin GA IV. On the procedure:
as §1, §2, §3

Data set [7] concerns SK-OV-3 (human ovarian adenocarcinoma). As to conditions: SK-OV-3 cells, 24 h exposure to 0–20 µM peptaibol, MTS read-out at 490 nm; value [95% CI]; at least three independent experiments in triplicate.

Regarding `CC(=O)NC(C)(C)C(=O)NCC(=O)N[C@@H](C)C(=O)N[C@@H](CC(C)C)C(=O)NC(C)(C)C(=O)N[C@@H](CCC(N)=O)C(=O)NC(C)(C)C(=O)N[C@H](C(=O)NC(C)(C)C(=O)N[C@@H](C)C(=O)NC1(C(=O)NC(C)(C)C(=O)NC(C)(C)C(=O)N[C@@H](CCC(N)=O)C(=O)N[C@H](CO)Cc2ccccc2)CC(C)(C)N([O])C(C)(C)C1)C(C)C` [To11-VX, [Toac^11]-pentadecaibin] (Ac-[Aib]GAL[Aib]Q[Aib]V[Aib]A[TOAC][Aib][Aib]Q[Phe(ol)]), the “ratio R = [θ]222/[θ]208 (index of aggregation between helices)” value in data set [1] is on record as “greater than 1”. For the same molecule, the IC50 in data set [2] amounted to 8.04 µM; in data set [3], 13.6 µM; in data set [4], 9.7 µM.
`CC(=O)NC(C)(C)C(=O)NCC(=O)N[C@@H](C)C(=O)N[C@@H](CC(C)C)C(=O)NC(C)(C)C(=O)N[C@@H](CCC(N)=O)C(=O)NC(C)(C)C(=O)N[C@H](C(=O)NC(C)(C)C(=O)N[C@@H](C)C(=O)NC(C)(C)C(=O)NC(C)(C)C(=O)NC(C)(C)C(=O)N[C@@H](CCC(N)=O)C(=O)N[C@H](CO)Cc1ccccc1)C(C)C` [VX, pentadecaibin] (Ac-[Aib]GAL[Aib]Q[Aib]V[Aib]A[Aib][Aib][Aib]Q[Phe(ol)]): in data set [1], the “ratio R = [θ]222/[θ]208 (index of aggregation between helices)” value is given as “greater than 1”. Also, the IC50 in data set [2] amounted to 8.79 µM; in data set [7], 11.1 µM; in data set [3] it was 14.2 µM; in data set [4] it was 9.1 µM. In addition, the “membrane activity (CF leakage from SUVs)” value in data set [5] and in data set [6] was “equally membrane active” throughout.
Take `CC(=O)NC1(C(=O)NCC(=O)N[C@@H](C)C(=O)N[C@@H](CC(C)C)C(=O)NC(C)(C)C(=O)N[C@@H](CCC(N)=O)C(=O)NC(C)(C)C(=O)N[C@H](C(=O)NC(C)(C)C(=O)N[C@@H](C)C(=O)NC(C)(C)C(=O)NC(C)(C)C(=O)NC(C)(C)C(=O)N[C@@H](CCC(N)=O)C(=O)N[C@H](CO)Cc2ccccc2)C(C)C)CC(C)(C)N([O])C(C)(C)C1` [To1-VX, [Toac^1]-pentadecaibin] (Ac-[TOAC]GAL[Aib]Q[Aib]V[Aib]A[Aib][Aib][Aib]Q[Phe(ol)]): the “ratio R = [θ]222/[θ]208 (index of aggregation between helices)” value in data set [1] is “greater than 1”. Also, the IC50 in data set [2] came out at 7.98 µM; in data set [7], 9.56 µM; in data set [3], 10.1 µM; in data set [4] it was 11.1 µM.

The term IC50 denotes the concentration that gives 50% inhibition.
